Consider 4 compounds from patent publication US20030232741A1, “Methods of treatment of glaucoma and other conditions mediated by NOS-2 expression via inhibition of the EGFR pathway” (Washington University, priority 2002, published 2003).

Assay type in all cases: cell-based
The subject of one assay is NOS-2. In words: NOS-2 protein induction in human ONH astrocytes (immunoblot). The conditions noted are these: for NOS-2 protein induced by elevated hydrostatic pressure: elevated hydrostatic pressure 48 hrs, AG18 40 μM, anti-EGFR antibody 1:20; for induction of NOS-2 in response to cytokines (protein/mRNA not specified): IL-1β/IFN-γ. As to the method: (§1) Twelve normal human (aged 22-51) eyes were obtained within 24 hrs after death. Lamina cribrosa astrocytes were obtained as described previously.^5 The second-passage cell cultures, which had over 95% cells positive for GFAP, were grown to 60-80% confluency and placed in serum free medium for one week before use.
(§2) Astrocytes grown on coverslips were placed under sterile, disposable polypropylene cylinders 6 cm high and 3 cm in diameter. Hydrostatic pressure was elevated by 5 cm of serum free medium, conditioned at 37° C. in a 5% CO2 humidified atmosphere. As control, the same number of cells on a coverslip was placed in 140 mm Petri dishes with 0.3 cm height of media in a volume equivalent to that used in the hydrostatic pressure experiments. Both pressurized and control cultures were maintained in a tissue culture incubator at 37° C. with a 5% CO2 humidified atmosphere for various periods. AG82 or AG18 (Calbiochem, Darmstadt, Germany) was added to the cell media 30 min before and during the period of exposure to elevated hydrostatic pressure or IL-1β/IFN-γ at final concentrations of 7 μM or 40 μM, respectively. SB202190 (Calbiochem, Darmstadt, Germany) was added to the cell media 30 min before and during the period of exposure to elevated hydrostatic pressure or IL-1β/IFN-γ at a final concentrations of 380 nM. SN-50 (BioMol, Plymouth Meeting, Pa.) was added to the cell media 30 min before and during the period of exposure to elevated hydrostatic pressure or IL-1β/IFN-γ at a final concentrations of 50 μg/ml. Monoclonal anti-EGFR antibody (Santa Cruz Biotechnology Inc, Santa Cruz, Calif.) which recognizes an EGF receptor cell surface epitope and is an antagonist of EGFR, was added to the cell media 12 hrs before and during the period of exposure to elevated hydrostatic pressure or EGF (100 ng/ml)(Sigma-Aldrich Corp., St. Louis, Mo.) at a working dilution of 1:20. Astrocytes were stimulated by the addition to the media of 200 U/ml human IFN-γ (Sigma-Aldrich Corp, Saint Louis, Mo.) and 10 ng/ml human IL-1β (Sigma-Aldrich Corp, Saint Louis, Mo.) for 12 or 48 hours.
NOS-2 immunoblot was as described previously.^5 For EGFR and p-EGFR immunoblot,^11 astrocytes were lysed in buffer (20 mm HEPES, pH 7.0, 10 mM KCI, 2 mM MgCl2, 0.5% Nonidet P40, 1 mM Na3VO4, 1 mM PMSF, 0.15 U ml^−1 aprotinin) and homogenized. The non-nuclear and nuclear fractions were separated by centrifugation at 1,500 g for 5 min to sediment the nuclei. The nuclear pellet was washed with the lysis buffer and resuspended in the same buffer containing 0.5 M NaCl to extract nuclear proteins. 20 μg protein of each non-nuclear fraction and 40 μg of each nuclear fraction were separated by 10% SDS-PAGE and transferred to a nitrocellulose membrane. Immunoblotting was performed with specific primary antibody against EGFR and p-EGFR followed by peroxidase-conjugated secondary antibody (Santa Cruz Biotechnology Inc, Santa Cruz, Calif.) and imaged by the enhanced chemiluminescence detection system (Amersham Life Science Inc, Arlington Heights, Ill.).
For orientation: In western blotting, separated proteins are transferred to a membrane and probed.

The next assay has as its system NOS-2 mRNA. Put plainly: NOS-2 mRNA induction in human ONH astrocytes (semi-quantitative RT-PCR). The conditions noted are these: AG82 7 μM, SB202190 380 nM, SN-50 50 μg/ml; for NOS-2 mRNA induced by elevated hydrostatic pressure: elevated hydrostatic pressure 12 hrs, AG18 40 μM. As to the method: as §1
as §2, with “Astrocytes were stimulated by the addition to the media of 200 U/ml human IFN-γ (Sigma-Aldrich Corp, Saint Louis, Mo.) and 10 ng/ml human IL-1β (Sigma-Aldrich Corp, Saint Louis, Mo.) for 12 or 48 hours.” left out
Semi-quantitative RT-PCR was performed as published previously.^8

In assay [1] the target is T1, p-EGFR (Homo sapiens, UniProt P00533). Put plainly: Immunoblot for p-EGFR in nuclear and non-nuclear fractions of human ONH astrocytes exposed to elevated hydrostatic pressure. The conditions noted are these: elevated hydrostatic pressure 10 min; AG82 7 μM added 30 min before and during.
Procedure: NOS-2 immunoblot was as described previously.^5 For EGFR and p-EGFR immunoblot,^11 astrocytes were lysed in buffer (20 mm HEPES, pH 7.0, 10 mM KCI, 2 mM MgCl2, 0.5% Nonidet P40, 1 mM Na3VO4, 1 mM PMSF, 0.15 U ml^−1 aprotinin) and homogenized. The non-nuclear and nuclear fractions were separated by centrifugation at 1,500 g for 5 min to sediment the nuclei. […]
Assay [2] addresses T1, p-EGFR. In words: Immunocytochemistry for p-EGFR in cultured human ONH astrocytes exposed to elevated hydrostatic pressure. The conditions noted are these: elevated hydrostatic pressure 10 min; AG82 7 μM added 30 min before and during.
Procedure: Astrocytes grown on coverslips were placed under sterile, disposable polypropylene cylinders 6 cm high and 3 cm in diameter. Hydrostatic pressure was elevated by 5 cm of serum free medium, conditioned at 37° C. in a 5% CO2 humidified atmosphere. As control, the same number of cells on a coverslip was placed in 140 mm Petri dishes with 0.3 cm height of media in a volume equivalent to that used in the hydrostatic pressure experiments. Both pressurized and control cultures were maintained in a tissue culture incubator at 37° C. with a 5% CO2 humidified atmosphere for various periods. […]
As described previously,^5 cells grown on coverslips were fixed in 4% paraformaldehyde, incubated with specific primary antibodies against EGFR, p-EGFR or GFAP and appropriate fluorescent conjugated secondary antibodies (Molecular Probes Inc., Eugene, Ore), and visualized by fluorescence microscopy. […]
Where [3] appears, read: AG82 7 μM, SB202190 380 nM, SN-50 50 μg/ml.

Entries after “also recorded” stand apart in the source; their conditions may differ.

T1 sequence (P00533 25-1210): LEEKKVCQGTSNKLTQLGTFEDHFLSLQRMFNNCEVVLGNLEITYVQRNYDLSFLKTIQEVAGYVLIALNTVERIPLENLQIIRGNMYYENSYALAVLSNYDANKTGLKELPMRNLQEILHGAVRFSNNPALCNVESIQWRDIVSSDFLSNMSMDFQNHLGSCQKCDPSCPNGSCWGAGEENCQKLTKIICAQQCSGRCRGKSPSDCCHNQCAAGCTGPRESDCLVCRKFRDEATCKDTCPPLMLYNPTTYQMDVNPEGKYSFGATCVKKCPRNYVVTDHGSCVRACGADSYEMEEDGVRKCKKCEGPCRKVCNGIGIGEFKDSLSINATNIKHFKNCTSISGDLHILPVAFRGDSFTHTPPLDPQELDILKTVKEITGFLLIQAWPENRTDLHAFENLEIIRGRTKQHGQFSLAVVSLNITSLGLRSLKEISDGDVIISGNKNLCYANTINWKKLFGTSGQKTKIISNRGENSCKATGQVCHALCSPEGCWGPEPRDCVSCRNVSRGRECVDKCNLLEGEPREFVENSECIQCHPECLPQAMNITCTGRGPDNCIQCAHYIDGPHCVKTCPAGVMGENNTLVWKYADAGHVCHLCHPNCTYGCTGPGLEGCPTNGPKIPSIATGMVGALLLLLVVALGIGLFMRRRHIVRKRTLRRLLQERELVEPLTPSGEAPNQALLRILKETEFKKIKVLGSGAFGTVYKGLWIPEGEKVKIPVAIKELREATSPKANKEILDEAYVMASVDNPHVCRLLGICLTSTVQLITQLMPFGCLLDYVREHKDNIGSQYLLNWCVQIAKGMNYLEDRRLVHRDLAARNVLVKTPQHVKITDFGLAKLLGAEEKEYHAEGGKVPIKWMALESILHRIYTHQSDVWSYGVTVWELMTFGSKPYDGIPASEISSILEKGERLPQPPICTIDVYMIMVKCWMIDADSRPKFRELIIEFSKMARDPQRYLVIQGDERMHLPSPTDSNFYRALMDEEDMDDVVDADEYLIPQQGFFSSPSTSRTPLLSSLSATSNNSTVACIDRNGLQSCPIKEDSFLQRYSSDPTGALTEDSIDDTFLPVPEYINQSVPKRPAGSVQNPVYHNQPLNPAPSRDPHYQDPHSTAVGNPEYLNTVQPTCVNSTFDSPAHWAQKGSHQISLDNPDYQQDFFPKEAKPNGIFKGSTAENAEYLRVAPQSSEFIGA

For “EGF: epidermal growth factor, EGFR ligand (Sigma-Aldrich), added at 100 ng/ml (NSDSECPLSHDGYCLHDGVCMYIEALDKYACNCVVGYIGERCQYRDLKWWELR; UniProt P01133 971-1023, looked up)”, in the assay on NOS-2 (100 ng/ml EGF in culture medium for 48 hrs, versus non-treated astrocytes), the “NOS-2 protein level in astrocytes treated with EGF (Western blot and immunocytochemistry)” value was “significantly increased; also recorded: increased labeling for NOS-2 and GFAP”.

`N#CC(C#N)=Cc1cc(O)c(O)c(O)c1` [AG82, α-Cyano-(3,4,5-trihydroxy)cinnamonitrile]: the “NOS-2 mRNA induced by elevated hydrostatic pressure” value in the assay on NOS-2 mRNA is “almost completely prevented; also recorded: affects the transcription of the NOS-2 gene to mRNA in response to elevated hydrostatic pressure; also recorded: significantly blocked the appearances of NOS-2 mRNA and protein”. Further, the “NOS-2 protein induced by elevated hydrostatic pressure” value in the assay with NOS-2 (setting [3]) was “significantly prevented the increased protein level of NOS-2; also recorded: significantly blocked the appearance of NOS-2 protein in response to elevated hydrostatic pressure; also recorded: significantly blocked the appearances of NOS-2 mRNA and protein”. Also, the “induction of NOS-2 in response to cytokines (protein/mRNA not specified)” value in the assay with NOS-2 (human optic nerve astrocytes) is on record as “does not inhibit the induction of NOS-2 in response to cytokines”. Besides, the “induction of NOS-2 in response to elevated hydrostatic pressure (protein/mRNA not specified)” value in the assay with NOS-2 (human optic nerve astrocytes, elevated hydrostatic pressure) is recorded as “blocks induction of NOS-2 in response to elevated hydrostatic pressure”. Moreover, the “tyrosine phosphorylation of EGFR (p-EGFR) in non-nuclear and nuclear extracts by immunoblot” value at p-EGFR [1] was “significantly blocked the tyrosine phosphorylation of EGFR in both non-nuclear and nuclear extracts; also recorded: completely prevents the increase in p-EGFR in both nuclear and non-nuclear fractions”. Also, on p-EGFR [2], the “immunocytochemical labeling for p-EGFR in response to elevated hydrostatic pressure” value is “blocked the increased immunocytochemical labeling for p-EGFR in the cytoplasm in response to elevated hydrostatic pressure and, most notably, there was no nuclear labeling for p-EGFR; also recorded: prevents the nuclear labeling for p-EGFR”.

`N#CC(C#N)=Cc1ccc(O)c(O)c1` [AG18, α-Cyano-(3,4-dihydroxy)cinnamonitrile]: the “NOS-2 mRNA induced by elevated hydrostatic pressure” value in the assay with NOS-2 mRNA was “prevented both the increased protein level and the mRNA level of NOS-2; also recorded: significantly blocked the appearances of NOS-2 mRNA and protein”. For the same compound, in the assay on NOS-2 (setting [3]), the “NOS-2 protein induced by elevated hydrostatic pressure” value is “prevented both the increased protein level and the mRNA level of NOS-2; also recorded: significantly blocked the appearances of NOS-2 mRNA and protein”.

Consider `Oc1ccc(-c2nc(-c3ccncc3)c(-c3ccc(F)cc3)[nH]2)cc1` [SD202190], for which the “NOS-2 mRNA induced by cytokines” value with NOS-2 mRNA (200 U/ml IFN-γ and 10 ng/ml IL-1β, 12 hours) is given as “affects the transcription of the NOS-2 gene to mRNA in response to cytokines”. Further, the “NOS-2 protein induced by cytokines” value in the assay with NOS-2 (200 U/ml IFN-γ and 10 ng/ml IL-1β, 48 hours, AG82 7 μM, SB202190 380 nM, SN-50 50 μg/ml) is recorded as “significantly blocked the appearance of NOS-2 protein in response to cytokine stimulation”. The “induction of NOS-2 in response to cytokines (protein/mRNA not specified)” value with NOS-2 (human optic nerve astrocytes) is “blocks the induction of NOS-2 in human optic nerve astrocytes in response to cytokines”.
